Results on 89 compounds are retold here after a melting point compilation (Tetko et al.; mined from patent text by program, amines drawn as free bases though some values may be those of a salt).

`COc1ccc2c(c1)c(CC(=O)OCC(=O)OC(C)(C)C)c(C)n2C(=O)c1ccc(Cl)cc1` registered a melting point of 96 to 97 °C.

As to `COc1ncc(Cl)cc1C(O)C=Cc1ccc(Cl)cc1` (centres undefined), the melting point lay within 135 to 140 °C. The result for `COc1cc(-n2cnnc2I)ccc1C` reads 123 °C. `Nn1c(C(F)(F)F)cc(-c2ccc(C(F)(F)F)cc2)cc1=S` came in with a melting point of 156 °C. With `COc1cc(OC)c2c(C)c(CCN3CCN(c4ccccc4)CC3)c(=O)oc2c1`, the melting point is 112 to 114 °C. The result for `FC(F)(F)c1ccc(Cl)c(-c2cccn3nc(Cl)nc23)c1` reads 156 to 158 °C. Take `O=C(N(Cc1cccnc1)c1ccc(Cl)cc1)C(F)(F)F`: the melting point was in the range of 80 to 81 °C. Then `COc1cc(C)c(N)cc1C`, with 75 to 76 °C. The result for `CCOC(=O)Nc1ccccc1C(=O)OCC` reads under 40 °C; that for `CCN(C(=O)c1cnc(N2CC(C)NC2=O)nc1N)c1cccc(C(F)(F)F)c1` (centres undefined), 207 to 208 °C. `CCCS(=O)(=O)N(c1cc(Cl)ccc1C(=O)OC)S(=O)(=O)CCC`: the melting point lay in the range of 156 to 158 °C. `c1ccc(-c2ccc(N(c3ccccc3)c3ccccc3)cc2)cc1` yielded a melting point of 117 to 118 °C. `O=c1c(-c2ccccc2)c(-c2ccccc2)oc2cc(OCC(O)CNC3CC3)ccc12` (centres undefined) came in with a melting point of 135 to 137 °C. The result for `O=Cc1ccc(/C=C/c2ccncc2)cc1` reads 116 to 117 °C; that for `Cc1c(C(=O)O)cnn1-c1cc(Cl)cc(Cl)c1`, 229 to 230 °C. Compound `C1=Cn2ccnc2Cc2ccccc21` showed a melting point of 85.5 °C. Then `CCOC(=O)c1cc2n(C)c3ccc(Cl)cc3c(=O)n2n1`, with 272 to 274 °C. The result for `COCOc1ccccc1C=CC(=O)O` reads 133 to 134 °C.

As to `COc1ccc2nc(-c3ccc(OC)c(F)c3)cc(O)c2c1`, the melting point was 326 to 328 °C. The result for `COc1nc2cc([N+](=O)[O-])c(C)c(C(=O)Cl)c2nc1OC` reads 162 to 164 °C; that for `O=C(Nc1ccc(F)cc1F)c1cccc(Oc2cccc(Cl)c2)n1`, 116 to 117 °C; that for `c1ccc(-c2nnc3cc(-c4ccsc4)c(OCc4ncn[nH]4)nn23)cc1`, 264 to 266 °C. With `Cc1ccc(CNC(=O)C2=C(C(=O)Nc3ccc(Br)cc3F)CCCC2)cc1`, the melting point lay within 167 to 168 °C. Then `CC(C)(C)c1cc(-c2csc3nc(-c4ccccc4)c(-c4ccccc4)n23)cc(C(C)(C)C)c1O`, with 237 to 238 °C; and `CC(=Cc1ccc([N+](=O)[O-])cc1)C(=O)Oc1ccc(Cl)cc1`, with 111 to 112 °C; and `Cc1ccc(S(=O)(=O)OCC2COc3ccc4ccccc4c3O2)cc1` (centres undefined), with 122 to 124 °C. The result for `CCN1Cc2c(cc3ccc4c(c3c2-c2ccc3c(c2)OCO3)OCO4)C1=O` reads 210 to 212 °C; that for `Nc1cc(Sc2ccc3c(C(=O)Nc4cccc(OC(F)(F)F)c4)cccc3c2)ncn1`, 197 to 199 °C. Then `Cc1cnc(-c2ccc(-c3ccccc3S(=O)(=O)Nc3onc(C)c3C)cc2)o1`, with 90 to 100 °C; and `C=CCOc1ccccc1-c1ccc(C#N)cc1`, with 68 to 69 °C; and `COc1cccc(CC(=O)O)c1OCCCc1cn(-c2ccc(NS(C)(=O)=O)cn2)nc1C(C)C`, with 176 to 177 °C. The compound `O=C1CN(c2ccc(Cc3ccccc3)cc2)C(=S)N1Cc1ccccc1` yielded a melting point of 107 °C. The result for `CCOC(=O)C(=CNCc1cnsn1)C(=O)c1cc(F)c(F)cc1F` reads 168 to 170 °C; that for `CS(=O)(=O)c1ccc(-c2[nH]c(CO)nc2-c2ccc(F)cc2)cc1`, 115 to 117 °C; that for `Cc1cc(F)ccc1C(=C(C=CC(O)CC(=O)CC(=O)OC(C)(C)C)c1nnnn1C)c1ccc(F)cc1C` (centres undefined), 65 to 72 °C.

For the compound `CC(C(N)=O)c1ccc(-c2ccc(F)cc2F)c(F)c1` (centres undefined), the melting point is 136 to 137 °C. Then `CN(C=C(c1ccccc1)c1ccccc1)C(=O)c1sc2ccc(C(F)(F)F)cc2c1O`, with 147 to 150 °C. The result for `ClC1=Nc2ccccc2Sc2ncccc21` reads 134 to 135 °C; that for `COC(=O)C#CCOC(N)=O`, 113 to 114 °C; that for `O=C1N(Cc2cc3cccc(F)c3o2)c2ccccc2C12COc1cc3c(cc12)CCO3` (centres undefined), 192 to 193 °C.

Compound `COC(c1ccc(NC(=O)c2c(C)nn(C)c2C)c(C(C)CC(C)C)c1)(C(F)(F)F)C(F)(F)F` (centres undefined) returned a melting point of 94 to 96 °C. The result for `CCN1C(=O)[C@@H](NC(=O)OC(C)(C)C)COc2ccccc21` reads 112 °C. The result for `COc1cc(C(=O)c2cccnc2)ccc1O` reads 150 to 151 °C; that for `O=C(O)C1Cc2c(ccc3c(=O)c4c(Cl)cccc4oc23)O1` (centres undefined), 283 to 286 °C; that for `COC(=O)c1ccccc1NC(=O)N(C)CCO`, 90 °C.

Compound `SCc1cn(C(c2ccccc2)(c2ccccc2)c2ccccc2)nn1` yielded a melting point of 140 to 141 °C.

In turn, `COCOc1c(OC)cc(C=O)cc1OC` displayed a melting point of 52 to 53 °C.

Consider `Cc1nnc(-c2nnc(SCCC(F)=C(F)F)o2)o1`, for which the melting point fell in the range of 77 to 79 °C. Then `CC(C)(CNc1ccnc2cc(Cl)ccc12)NCc1cccc(C(F)(F)F)c1`, with 156 to 157 °C. The result for `CCS(=O)(=O)Nc1cc(Br)cc(Cc2c[nH]cn2)c1C` reads 202 to 204 °C; that for `Nc1ccc(Cl)c(C(=O)NCCC23CC4CC(CC(C4)C2)C3)c1`, 147 to 149 °C. Then `CC(C)(C)c1ccc(Nc2cccc3c2C(=O)N(C2CCC(=O)NC2=O)C3=O)cc1` (centres undefined), with 228 to 230 °C; and `Cc1nn(-c2ccccn2)c(C)c1S(N)(=O)=O`, with 160 to 163 °C; and `NCCCCn1cnc(-c2ccc(F)cc2)c1`, with 138 to 140 °C. `CCc1ccc(C(=NO)c2ccc(F)cc2)c(O)c1` displayed a melting point of 130 to 132 °C. Then `O=C(Nc1cccc(S(=O)(=O)NCC(F)(F)F)c1)c1cnn2c(C(F)(F)F)cc(-c3ccc(C(F)(F)F)cc3)nc12`, with 259 °C. Then `O=C(CCc1ccccc1)N[C@H]1C[C@H](C(=O)O)Nc2cc(Cl)cc(Cl)c21` (relative stereo), with 188 °C; and `C#Cc1ccc2c(c1)CCC2=O`, with 157 °C.

Regarding `Nc1cccc(Oc2cnc3cc(Cl)ccc3n2)c1`, the melting point lay in the range of 119 to 120 °C.

For `COCCCNC(=O)c1[nH]c(C)c(-c2nc3ccc(C(=O)c4ccccc4)cc3[nH]2)c1C`, the melting point was in the range of 256 to 258 °C. Then `O=C1NC(=O)C2(c3cccc([N+](=O)[O-])c3)CC12` (centres undefined), with 173 to 174 °C. The result for `CN(C)CCc1[nH]c2ccccc2c1CC#N` reads 122 to 127 °C.

In the case of `CC(Cl)N1C(=O)CCC1=O` (centres undefined), the melting point lay in the range of 83.5 to 84.5 °C. The compound `O=C1NCCc2ccc(OCCCCN3CCN(c4cccc5c4CCCC5)CC3)nc2N1` displayed a melting point of 185 to 186 °C. The result for `COC(=O)c1ccc(-c2ccc3cc(OCc4ccccc4)c(C45CC6CC(CC(C6)C4)C5)cc3c2)s1` reads 170 to 171 °C. `COc1ccc(-c2[nH]nc3c2C(=O)c2c(NC(=O)NNC(=O)c4ccccc4O)cccc2-3)cc1` displayed a melting point of 280 °C. Take `COc1ccc(CN(CCN(C)CCNC(=O)NCCSCc2csc(NC(=N)N)n2)c2ccccn2)cc1`: the melting point is 84 °C. Compound `Clc1ccccc1N=Cc1ccc(-c2nc3ccccn3n2)cc1` yielded a melting point of 135 to 136 °C.

For `CN1CCC(O)(c2cnc3ccccc3c2)CC1`, the melting point was 175 °C. Then `CCOC(=O)C=C(C)NC(=O)Nc1cc(OC(C)C)c(Cl)cc1F`, with 142 to 144 °C. The result for `O=C(CCCCCNC(=O)Nc1cn2c3c(cccc13)CCC2)NO` reads 161 to 163 °C; that for `O=C(O)c1cccc2cc(Oc3cc(Cl)ncn3)ccc12`, 194 to 195 °C; that for `NC(=O)CNC(=O)c1ccccc1I`, 183 to 185 °C.

The compound `CS(=O)(=O)Cc1c(C(=O)c2cnoc2C2CC2)ccc(S(C)(=O)=O)c1Cl` came in with a melting point of 110 °C. The result for `CCc1ccc([N+](=O)[O-])cc1COC` reads 21.5 to 23.5 °C; that for `CCn1c(=O)c2nc(-c3ccc(/C=C/C(=O)O)cc3)[nH]c2n(C)c1=O`, over 300 °C. Then `COC(=O)c1ccc(C(=O)NCc2cccc3ccccc23)s1`, with 125 °C. The result for `COC(=O)c1nc(-c2ccc([Si](C)(C)C)cc2F)c(F)c(N)c1OC` reads 127 to 129 °C; that for `CC(C)Oc1ccc(-c2nc(O)c(C(=O)O)s2)cc1`, 126 to 127 °C.

Compound `CCCSc1cc2c(c3c1OC(C)(C)C3)C(c1cccc(C(=O)O)c1)=NC(C)(C)C2` yielded a melting point of 206 to 208 °C. Compound `OCCn1ccccc1=S` had a melting point of 95 to 97 °C.

`CCC(=O)n1ccc(-c2ccc(C(=O)N3Cc4cccn4Cc4ccccc43)cc2)n1` showed a melting point of 150 to 152 °C. Compound `COC(=O)/C=C/c1cc2c(-c3ccccc3)c(CC(=O)Nc3ccc(F)cc3C(F)(F)F)c(=O)oc2cc1C` displayed a melting point of 233 to 236 °C.

Take `NC(=O)CN(c1ccc(Cl)cc1C(O)c1ccccc1Cl)S(=O)(=O)c1ccc(Cl)c(Cl)c1` (centres undefined): the melting point was found to be 135 °C. The result for `COCCOc1ccc(COC(=O)NS(=O)(=O)c2ccc(Cl)cc2)c(Oc2ncc(C(F)(F)F)cc2Cl)c1` reads 112 to 115 °C. Take `CCn1c(CO)nc(C(C)C)c1Sc1cccc(Cl)c1`: the melting point was in the range of 99 to 100 °C. On to `O=CNC1CCc2ccccc2N(C=O)C1` (centres undefined), for which the melting point came out at 130 °C. Then `COc1cc2c(cc1C)OC1(CC2(C)C)CC(C)(C)c2cc(OCC(=O)O)c(C)cc2O1` (centres undefined), with 195 to 197 °C. Then `CC(NCC#N)C(O)(Cn1cncn1)c1ccc(F)cc1F` (centres undefined), with 138 to 139 °C.
